Experimental data taken from patent publication US20060100290A1, “Treatment of allergic rhinitis and asthma” (priority 2003, published 2006).

Tested on: allergic rhinitis and asthma
Experiment: Treatment of human patients with allergic rhinitis and/or asthma with daily atomoxetine (case reports, Examples 1-4)
Type: in vivo, humans
Protocol: A person with a 24 year history of severe allergic rhinitis, immunotherapy failure, and a 10 year history of moderate persistent asthma was given a 100 mg daily dose of atomoxetine. […]
Here, as is known in the art, FEV1 percent is the ratio of FEV1 to the predicted FEV1, which is obtained from standardized tables based on age, weight, height, and sex; FEV1 is the volume of air that is forcefully exhaled from the lungs in one second.

[1] = Example 3: person, allergic rhinitis, 80 mg daily dose

CNCC[C@@H](Oc1ccccc1C)c1ccccc1.Cl [atomoxetine, (R)-(−)-N-methyl-3-(2-methylphenoxy)-3-phenylpropylamine]
symptom status on atomoxetine mono therapy (Example 1: person, 60 mg daily dose, monitored during the following year): remained symptom free during the entire period of monitoring | time until able to wean all traditional allergic rhinitis and asthma treatments (Example 1: person, allergic rhinitis and moderate persistent asthma, 60 mg daily dose): three | symptom status on atomoxetine mono therapy (Example 2: person, 100 mg daily dose, monitored during the following 10 months): remained symptom free during the entire period of monitoring | time until able to wean all traditional allergic rhinitis and asthma treatments (Example 2: person, severe allergic rhinitis and moderate persistent asthma, 100 mg daily dose): ≤ 10 days | time remained symptom free with atomoxetine mono therapy [1]: at least nine | time until able to wean all traditional allergic rhinitis treatments [1]: ≤ 7 days | time remained symptom free with atomoxetine mono therapy (Example 4: person, 80 mg daily dose): at least 7 months | FEV1 percent (ratio of FEV1 to predicted FEV1), pulmonary function test (Example 4: person, 80 mg daily dose, after 6 weeks of atomoxetine mono therapy, 68% on traditional treatments before): 93% | time until able to wean all traditional allergic rhinitis and asthma treatments (Example 4: person, allergic rhinitis and moderate persistent asthma, 80 mg daily dose): ≤ 10 days
